Values quoted from earlier work as cited in patent US20180318450A1, “ENHANCED SURGICAL VISUALIZATION OF VIABLE TISSUE WITH SELECTIVE DYE” (priority 2017, published 2018).
Starred links: 1 amine or outer side, 2 acyl side, 3 side chain; linkers in the order of their positions; H or OH if unused. Positions of bridges follow the written chain, without caps; N, C: chain ends. Non-standard residues stand in square brackets, D forms with d. Residues, ends and D or L forms follow the SMILES beside them. Trp(2-yl) = O=C([C@H](Cc1c([*:3])[nH]c2ccccc12)N[*:1])[*:2]; Leu(4R-OH,5-OH) = C[C@](O)(CO)C[C@H](N)C(=O)O; cisHyp = O=C(O)[C@@H]1C[C@H](O)CN1

System: tumor proliferation
Conditions: toxin attached to C-terminus of ph low insertion peptide, cells in acidic environment

For `C[C@@H]1NC(=O)[C@H](C[C@@](C)(O)CO)NC(=O)[C@@H]2Cc3c([nH]c4ccccc34)SC[C@H](NC(=O)[C@@H]([C@H](C)O)NC1=O)C(=O)N1C[C@@H](O)C[C@H]1C(=O)N[C@@H](C)C(=O)N2` [phalloidin] (cyclo(A[dT]C[cisHyp]A[Trp(2-yl)][Leu(4R-OH,5-OH)]); thioether 3-6), the tumor proliferation is listed as “prohibited tumor proliferation”.
